Source: patent publication US6413937B1, “Combinations for use in increasing the potency of a substrate for multidrug resistance related protein” (Dublin City University and Enterprise Ireland, priority 1996, dated 2002)

Key:
GSTs = settings: cited from earlier work
DLKP-7 cells = experiment: adriamycin efflux from loaded cells, HPLC; type: cell-based
Experimental: DLKP-7 cells were seeded into 75 cm^2 flasks at 0.5×10^6 cells/10 ml ATCC medium. The cells were left for 2 days, the ATCC medium was removed and fresh medium containing adriamycin (0.5 μg/ml) was added. Following a 2 hour incubation this medium was removed, the flasks were washed twice with PBS, 10 ml ATCC medium or ATCC medium containing the test NSAID was added, and the cells were incubated for a further 4 hr. The cells were trypsinised and the pellet was frozen at −20° C. Duplicate flasks for each time point were prepared. The NSAIDs used were indomethacin 10 μg/ml and piroxicam 20 μg/ml.
The amount of adriamycin in the cells was quantified using liquid-liquid extraction and reverse-phase HPLC analysis. The frozen cell pellets were thawed and resuspended in […] of water/100 μl of 33% silver nitrate and mixed for 5 min. 300 μl of methanol, containing 1.5 μg of daunorubicin as an internal standard (IS), and 1.3 ml of acetonitrile were then added and the tubes mixed for a further 5 min. The mixture was transferred to glass tubes and kept at 4° C. for 1 hr. The tubes were then centrifuged at 1000 g for 15 min. to pellet any solid material. 1.1 ml of the supernatant was removed to HPLC autosampler vials (Labquip, Dublin, Ireland). The solvent was evaporated off at room temperature under a stream of nitrogen gas.
The extract was resuspended in 50 μl of mobile phase 1 (MP1): 32 ml of 0.1 M phosphoric acid mixed with 244 ml of ultrapure water, pH: 2.3 (adjusted upwards with a few drops of 1N potassium hydroxide) to which 124 ml of acetonitrile was added and the final mixture was degassed in a sonicating bath for 5 min. The second mobile phase (MP2) consisted of acetonitrile. The resuspended sample (20 μl) was automatically injected into the HPLC system. The HPLC system comprised a Beckman System Gold 507 autosampler, 125 pump and 166 detector. The MP was pumped through a C18 reversed-phase Prodigy 5 μm particle size ODS-3 column (Phenomenex, Macclesfield, England) (dimensions 150×4.6mm) and absorbance was measured at 253 nm. For the first 14 min. of the chromatographic run MP 1 was pumped at 0.5 ml/min. From 14 min. to 20 min. the column was switched to MP 2. At 20 min. the column was switched back to MP 1 and the flow rate increased to 1 ml/min. At 30 min. the flow rate was brought back to 0.5 ml/min. The run continued for a further 5 min. giving a total run time of 35 min. The amount of adriamycin present was quantified by measuring its peak area and the peak area of the IS. The peak area of the adriamycin was divided by the area of the IS peak and the ratio plotted against a concentration series for spiked adriamycin samples.

[1] = system: COR L23 P (non-MRP) cells; settings: doxorubicin 10 mg/ml alone or with sulindac 20 mg/ml, 1, 2, 4 h, FIG. 4
Experimental: (§2) 10^6 COR L23 P (parental non-MRP resistant, MRP−) or COR L23 R (MRP resistant, MRP+) cells were added to 75 cm^3 vented flasks containing HEPES buffered Rosemount Park Memorial Institute (RPMI) medium and maintained at 37° C. in a 5% CO2 atmosphere. […] After three days of growth, doxorubicin (final concentration 10 mg/ml), sulindac (final concentration 20 mg/ml) or doxorubicin and sulindac were added to individual flasks. Samples were taken after 1, 2 and 4 h. and assayed for drug content.
(§3) The contents of each flask were washed twice with 5 ml of PBS and stored at −70° C. The flasks were thawed and 100 μl of water and 100 μl of 33% silver nitrate added to each and mixed for 5 min. […]
(§4) The extract was resuspended in 50 μl of methanol in the sample vial and loaded into the HPLC autosampler. […] The mobile phases were pumped through a C18 reversed-phase Ultrasphere XL (Beckman) HPLC column (4.6×70 mm) with absorbance measured at 253 nm. […] The amount of doxorubicin and sulindac present was quantified by measuring the peak height of these drugs and the internal standard. […] The concentration of doxorubicin in the samples was calculated from the) nd development standard line using the peak height ratio. The sulindac concentrations were calculated by the same method.

COR L23 R (MRP+) cells = settings: doxorubicin 10 mg/ml alone or with sulindac 20 mg/ml, 1, 2, 4 h, FIG. 3
Experimental: as §2, §3, §4

HL-60S cells = experiment: etoposide-induced apoptosis (nuclear fragmentation), HL-60S; type: cell-based; settings: HL-60S (sensitive); etoposide with sulindac; FIG. 2
Experimental: (§1) An experiment was carried out to determine the effect of the NSAID sulindac on etoposide-induced apoptosis in two cell lines, namely HL-60S and HL-60ADR. These cell lines were donated by Dr. Melvin Center, Kansas State University, Manhattan Kans. 66506, U.S.A. For the HL-60S and ADR cell lines the percentage of apoptotic cells within the cell population, following drug exposure, was used to quantify toxicity. Cells were plated in fresh medium at a concentration of 10^6 cells/ml in a 24-well plate (Greiner) and drugs were then added to the wells. A 200 μl sample from each well was taken after 4 and 8 hrs. Samples were cytospun for 2 min at 500 rpm using a Shandon Cytofuge3. After air-drying the cytospins were stained using a Romanowsky staining kit, Rappi-Diff II (Langanbach), dried and mounted in DPX (BDH). Slides were studied on an Optiphot microscope (Nikon) fitted with a 40× objective, and visualised on a monitor via a Mitsubishi CCD-100E colour CCD-camera and a 0.6× relay lens. Nuclear fragmentation was used as a morphological marker for apoptosis and a minimum of 200 cells were assessed in at least three different microscopic fields. Results were expressed as the percentage of apoptotic cells within the population. Each experiment was repeated in duplicate.

HL-60ADR cells = experiment: etoposide-induced apoptosis (nuclear fragmentation), HL-60ADR; type: cell-based; settings: HL-60ADR (resistant); etoposide alone or co-treated with sulindac; FIG. 1
Experimental: as §1

DLKP cell line = experiment: miniaturised in vitro colorimetric cell survival assay (acid phosphatase end-point), DLKP; type: cell-based, human
Experimental: All the results presented in this Example for the DLKP, A549 and OAW42-SR cell lines were derived using the same miniaturised in vitro calorimetric assay system. On Day 1 of the assay 1000 cells/well/100 μl were plated into 96-well plates. Cells were allowed to attach overnight and cell viability was visually assessed. […] NSAID plus chemotherapeutic drug) to be analysed were added onto the cells. The individual drugs were added separately in 50 μl quantities (4× stocks, to take into account the dilution effect of having 200 μl final volume in each well). The drugs were left on the cells for five further days (Day 7) and cell number was determined using the acid phosphatase end-point assay which uses p-nitrophenol phosphate as substrate (Martin, A. and Clynes, M. (1991) In Vitro Dev. Biol., 27A, 183-184). On Day 7 the culture medium was removed from the cells and they were washed once with phosphate buffered saline (PBS). […] After the incubation period 50 μl of 1N NaOH was added to each well to develop the colour. The plates were then read at 405 nm (reference 620 nm) on an ELISA plate-reader. […] All results are the cell survival means ±S.D. from a minimum of three experiments.

Compound: COc1ccc2c(c1)c(CC(=O)O)c(C)n2C(=O)c1ccc(Cl)cc1 [Indomethacin, indomethacin]
- inhibition of GSTs (GSTs): inhibitor of GSTs
- % Adriamycin content at 0 h (DLKP-7 cells; cells loaded with adriamycin 0.5 μg/ml 2 h, indomethacin 10 μg/ml, piroxicam 20 μg/ml, 0 h): 100%
- % Adriamycin content at 4 h (DLKP-7 cells; cells loaded with adriamycin 0.5 μg/ml 2 h, indomethacin 10 μg/ml, piroxicam 20 μg/ml, 4 h): 109 ± 4%
- level of adriamycin within the treated cells (DLKP-7 cells; during the 4 hours of the experiment): remained constant during the 4 hours of the experiment

Compound: CC1=C(CC(=O)O)c2cc(F)ccc2/C1=C\c1ccc([S+](C)[O-])cc1 (centres unmarked) [Sulindac, sulindac]
- doxorubicin level in the cells [1]: regardless of the co-treatment with sulindac
- doxorubicin level in the cells (COR L23 R (MRP+) cells): the doxorubicin level in the cells is increased to near that found in the MRP—cells
- etoposide-induced apoptosis, percentage of apoptotic cells (HL-60S cells): the increased apoptosis is only due to an additive effect of both etoposide and sulindac
- etoposide-induced apoptosis, percentage of apoptotic cells (HL-60ADR cells): a significant increase in the amount of cells dying by apoptosis is observed
- % cell survival (DLKP cell line; ii) Sulindac 1.5 μg/ml, alone or + Vincristine 1.0 ng/ml): 111.6 ± 9.7%
- % cell survival (DLKP cell line; ii) Sulindac 3 μg/ml, alone or + Vincristine 1.0 ng/ml): 108.45 ± 10.6%
- % cell survival (DLKP cell line; ii) Sulindac 6 μg/ml, alone or + Vincristine 1.0 ng/ml): 114.1 ± 3.9%
- % cell survival (DLKP cell line; iii) Sulindac 1.5 μg/ml, alone or + VP-16 100 ng/ml): 95.07 ± 1.6%
- % cell survival (DLKP cell line; iii) Sulindac 3 μg/ml, alone or + VP-16 100 ng/ml): 93.68 ± 2.0%
- % cell survival (DLKP cell line; iii) Sulindac 6 μg/ml, alone or + VP-16 100 ng/ml): 90.75 ± 3.3%
- % cell survival (DLKP cell line; iv) Sulindac 1.5 μg/ml, alone or + 5-FU 0.5 μg/ml): 99.70 ± 7.7%
- % cell survival (DLKP cell line; iv) Sulindac 3 μg/ml, alone or + 5-FU 0.5 μg/ml): 98.79 ± 8.8%
- % cell survival (DLKP cell line; iv) Sulindac 6 μg/ml, alone or + 5-FU 0.5 μg/ml): 93.61 ± 5.9%
- % cell survival (DLKP cell line; vii) Sulindac 1.5 μg/ml, alone or + PAT 1.5 μg/ml): 96.51 ± 5.3%
- % cell survival (DLKP cell line; vii) Sulindac 3.0 μg/ml, alone or + PAT 1.5 μg/ml): 99.99 ± 2.9%
- % cell survival (DLKP cell line; vii) Sulindac 6.0 μg/ml, alone or + PAT 1.5 μg/ml): 94.23 ± 1.2%
